Results: patent publication US20210386791A1, “METHODS OF CELLULAR REPROGRAMMING” (TissueTech, Inc., priority 2018, published 2021)

Test system: human corneal fibroblasts (HCF)
Test: Time course of nuclear translocation (CD44-ICD, TAK1, JNK1, Cyclin D1, p75NTR) and CD44 immunoprecipitation in HCF treated with HC-HA/PTX3±TGFβ1±inhibitors
Assay type: cell-based
Conditions: HC-HA/PTX3+TGFβ1 with inhibitor 10 μM; for nuclear translocation of CD44-ICD at 5 min: immunostaining and Western blotting
Method: Human corneal fibroblasts (P3) were seeded on plastics with or without immobilized HC-HA/PTX3 complex for 72 h in DMEM+10% FBS, then serum starved for 24 h and treated with or without TGFβ1 for 24 h before being harvested for mRNA quantitation or immunostaining. For determination of protein of TGFβ receptor or p75NTR, the cells were treated with or without TGF-β1 for 48 h before collection of protein samples because the protein expression lags behind mRNA expression. For TGF-β1 ELISA, the cells were treated with or without TGF-β1 for 24 h, and then cultured in the fresh medium for another 24 h. The supernatants were collected for TGFβ1 ELISA. For TGFβ2 and TGFβ3 ELISA, the cells were treated with or without TGFβ1 for 48 h. Certain HCF were seeded on glass in DMEM+10% FBS for 24 h, then in DMEM+ITS (insulin-transferrin-selenium) for 24 h, treated with/without PBS or hyaluronic acid (HA) or HC-HA/PTX3±TGFβ1 (10 ng/ml)±Marimastat (10 μM) or ±DAPT (10 μM) or ±both for 0, 5, 15, 30 and 45 minutes before being harvested for immunostaining of CD44-ICD, JNK1, Cyclin D1 and p75NTR and for 5 minutes before being harvested for Western blotting of cytoplasmic and nuclear CD44-ICD, active MT1-MMP, and active γ-secretase after compartmental separation of the cellular components.
HCF, induced human corneal endothelial cells (HCEC), and HCEC monolayer cultures were air-dried and fixed in 4% formaldehyde, pH 7.0, for 15 min at room temperature, rehydrated in PBS, incubated with 0.2% Triton X-100 for 15 min, and rinsed three times with PBS for 5 min each. After incubation with 2% BSA to block non-specific staining for 30 min, they were incubated with the desired first antibody (all at 1:50 dilution) for 16 h at 4° C. After three washes with PBS, they were incubated with corresponding Alexa-Fluor-conjugated secondary IgG (all 1:100 dilutions) for 60 min. The samples were then counterstained with Hoechst 33342 and analyzed with Zeiss LSM 700 confocal microscope (Thornhood, N.Y.). Corresponding mouse and rabbit sera were used as negative controls for primary monoclonal and polyclonal antibodies, respectively.
The native CD44 protein was immune-precipitated by Immunoprecipitation Kit (Abcam, ab206996) with CD44 antibody (Abcam, ab157107) following the vendor's instructions.
Cell lysates were prepared in radioimmunoprecipitation assay (RIPA) buffer or non-denature lysis buffer and resolved on 4-15% (w/v) gradient acrylamide gels for Western blotting. […] Immunoreactive proteins were detected with Western Lighting Chemiluminesence.

SMILES | nuclear translocation of TAK1, JNK1, Cyclin D1 and p75NTR at later time points | nuclear translocation of CD44-ICD at 5 min
C[C@H](NC(=O)Cc1cc(F)cc(F)c1)C(=O)N[C@H](C(=O)OC(C)(C)C)c1ccccc1 [DAPT] | inhibited | inhibited
CNC(=O)[C@@H](NC(=O)[C@H](CC(C)C)[C@H](O)C(=O)NO)C(C)(C)C [Marimastat] | inhibited | inhibited
